Results published in PubChem BioAssay (NCI).
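Cultured in 96-well plates, cells were exposed to test compound for 48 hours across five concentrations. GI50 is the concentration that inhibits growth by half. At the TGI there is no net growth.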

Experiments:
Test in all cases: DTP human tumour cell line panel, 48 h; in the data active means GI50 below about 0.43 µM; inactive means the rest
786-0 renal = test system: 786-0 renal
A498 renal = test system: A498 renal
A549 NSCLC = test system: A549 NSCLC
ACHN renal = test system: ACHN renal
BT-549 breast = test system: BT-549 breast
CAKI-1 renal = test system: CAKI-1 renal
CCRF-CEM leukemia = test system: CCRF-CEM leukemia
COLO 205 colon = test system: COLO 205 colon
DU-145 prostate = test system: DU-145 prostate
EKVX NSCLC = test system: EKVX NSCLC
HCC-2998 colon = test system: HCC-2998 colon
HCT-116 colon = test system: HCT-116 colon
HCT-15 colon = test system: HCT-15 colon
HL-60(TB) leukemia = test system: HL-60(TB) leukemia
HOP-62 NSCLC = test system: HOP-62 NSCLC
HOP-92 NSCLC = test system: HOP-92 NSCLC
HS 578T breast = test system: HS 578T breast
HT29 colon = test system: HT29 colon
IGROV1 ovarian = test system: IGROV1 ovarian
K-562 leukemia = test system: K-562 leukemia
KM12 colon = test system: KM12 colon
LOX IMVI melanoma = test system: LOX IMVI melanoma
M14 melanoma = test system: M14 melanoma
MALME-3M melanoma = test system: MALME-3M melanoma
MCF7 breast = test system: MCF7 breast
MDA-MB-231 breast = test system: MDA-MB-231 breast
MOLT-4 leukemia = test system: MOLT-4 leukemia
NCI-H226 lung = test system: NCI-H226 lung
NCI-H23 lung = test system: NCI-H23 lung
NCI-H460 lung = test system: NCI-H460 lung
NCI-H522 lung = test system: NCI-H522 lung
NCI/ADR-RES ovarian = test system: NCI/ADR-RES ovarian
OVCAR-3 ovarian = test system: OVCAR-3 ovarian
OVCAR-4 ovarian = test system: OVCAR-4 ovarian
OVCAR-5 ovarian = test system: OVCAR-5 ovarian
OVCAR-8 ovarian = test system: OVCAR-8 ovarian
PC-3 prostate = test system: PC-3 prostate
RPMI-8226 leukemia = test system: RPMI-8226 leukemia
RXF 393 renal = test system: RXF 393 renal
SF-268 CNS = test system: SF-268 CNS
SF-295 CNS = test system: SF-295 CNS
SF-539 CNS = test system: SF-539 CNS
SK-MEL-2 melanoma = test system: SK-MEL-2 melanoma
SK-MEL-28 melanoma = test system: SK-MEL-28 melanoma
SK-MEL-5 melanoma = test system: SK-MEL-5 melanoma
SK-OV-3 ovarian = test system: SK-OV-3 ovarian
SN12C renal = test system: SN12C renal
SNB-19 CNS = test system: SNB-19 CNS
SNB-75 CNS = test system: SNB-75 CNS
SR leukemia = test system: SR leukemia
SW-620 colon = test system: SW-620 colon
T-47D breast = test system: T-47D breast
TK-10 renal = test system: TK-10 renal
U251 CNS = test system: U251 CNS
UACC-257 melanoma = test system: UACC-257 melanoma
UACC-62 melanoma = test system: UACC-62 melanoma
UO-31 renal = test system: UO-31 renal

COc1cc(C2C(C#N)=C(N)Oc3cc4c(cc32)OCO4)cc2c1OCO2 (stereo unspecified)
4590 nM: TGI (NCI-H226 lung)
350 nM: TGI (OVCAR-3 ovarian)
> 59700 nM: TGI (HT29 colon)
> 90900 nM: TGI (786-0 renal)
active: GI50 (A498 renal) 103 nM | GI50 (A549 NSCLC) 384 nM | GI50 (CAKI-1 renal) 382 nM | GI50 (CCRF-CEM leukemia) 318 nM | GI50 (COLO 205 colon) 308 nM | GI50 (DU-145 prostate) 362 nM | GI50 (HCC-2998 colon) 352 nM | GI50 (HL-60(TB) leukemia) 219 nM | GI50 (HOP-62 NSCLC) 393 nM | GI50 (HOP-92 NSCLC) 407 nM | GI50 (HS 578T breast) 328 nM | GI50 (HT29 colon) 324 nM | GI50 (K-562 leukemia) 68 nM | GI50 (KM12 colon) 206 nM | GI50 (M14 melanoma) 418 nM | GI50 (MCF7 breast) 187 nM | GI50 (NCI-H226 lung) 273 nM | GI50 (NCI-H23 lung) 313 nM | GI50 (NCI-H460 lung) 340 nM | GI50 (NCI-H522 lung) 92.6 nM | GI50 (NCI/ADR-RES ovarian) 103 nM | GI50 (OVCAR-3 ovarian) 92.8 nM | GI50 (PC-3 prostate) 278 nM | GI50 (RPMI-8226 leukemia) 406 nM | GI50 (RXF 393 renal) 146 nM | GI50 (SF-295 CNS) 209 nM | GI50 (SF-539 CNS) 279 nM | GI50 (SK-MEL-5 melanoma) 101 nM | GI50 (SNB-75 CNS) 178 nM | GI50 (SR leukemia) 69.6 nM | GI50 (SW-620 colon) 276 nM | GI50 (U251 CNS) 314 nM | GI50 (UACC-62 melanoma) 285 nM
29500 nM: TGI (BT-549 breast)
26200 nM: TGI (NCI-H460 lung)
546 nM: TGI (RXF 393 renal)
553 nM: TGI (NCI/ADR-RES ovarian)
715 nM: TGI (HL-60(TB) leukemia)
6110 nM: TGI (HCC-2998 colon)
> 75000 nM: TGI (MCF7 breast)
46800 nM: TGI (HOP-92 NSCLC)
2720 nM: TGI (NCI-H522 lung)
> 71000 nM: TGI (RPMI-8226 leukemia)
> 79800 nM: TGI (TK-10 renal)
inactive: GI50 (786-0 renal) 597 nM | GI50 (ACHN renal) 2300 nM | GI50 (BT-549 breast) 1800 nM | GI50 (EKVX NSCLC) 594 nM | GI50 (HCT-116 colon) 455 nM | GI50 (HCT-15 colon) 446 nM | GI50 (IGROV1 ovarian) 724 nM | GI50 (LOX IMVI melanoma) 1000 nM | GI50 (MALME-3M melanoma) 2670 nM | GI50 (MDA-MB-231 breast) 774 nM | GI50 (MOLT-4 leukemia) 935 nM | GI50 (OVCAR-4 ovarian) 931 nM | GI50 (OVCAR-5 ovarian) 1290 nM | GI50 (OVCAR-8 ovarian) 466 nM | GI50 (SF-268 CNS) 963 nM | GI50 (SK-MEL-2 melanoma) 525 nM | GI50 (SK-MEL-28 melanoma) 1570 nM | GI50 (SK-OV-3 ovarian) 439 nM | GI50 (SN12C renal) 599 nM | GI50 (SNB-19 CNS) 709 nM | GI50 (T-47D breast) 3380 nM | GI50 (TK-10 renal) 2360 nM | GI50 (UACC-257 melanoma) 900 nM | GI50 (UO-31 renal) 653 nM
> 38000 nM: TGI (U251 CNS)
> 100000 nM: TGI (A549 NSCLC) | TGI (ACHN renal) | TGI (CAKI-1 renal) | TGI (CCRF-CEM leukemia) | TGI (DU-145 prostate) | TGI (EKVX NSCLC) | TGI (HCT-116 colon) | TGI (HCT-15 colon) | TGI (HOP-62 NSCLC) | TGI (HS 578T breast) | TGI (IGROV1 ovarian) | TGI (K-562 leukemia) | TGI (LOX IMVI melanoma) | TGI (M14 melanoma) | TGI (MALME-3M melanoma) | TGI (MDA-MB-231 breast) | TGI (NCI-H23 lung) | TGI (OVCAR-4 ovarian) | TGI (OVCAR-5 ovarian) | TGI (OVCAR-8 ovarian) | TGI (PC-3 prostate) | TGI (SF-295 CNS) | TGI (SK-MEL-2 melanoma) | TGI (SK-MEL-28 melanoma) | TGI (SN12C renal) | TGI (SNB-19 CNS) | TGI (SNB-75 CNS) | TGI (SR leukemia) | TGI (SW-620 colon) | TGI (T-47D breast) | TGI (UACC-257 melanoma) | TGI (UACC-62 melanoma) | TGI (UO-31 renal)
97300 nM: TGI (SF-268 CNS)
> 46600 nM: TGI (KM12 colon)
14300 nM: TGI (SK-MEL-5 melanoma)
1020 nM: TGI (COLO 205 colon)
49500 nM: TGI (MOLT-4 leukemia)
